Key:
[1] = Plasma protein binding rate, CD-1 mouse plasma (equilibrium dialysis); type: in vitro ADME; settings: CD-1 mice plasma, dialysis 4 h at 37° C.
Procedure: Experimental Example 5: Study on Plasma Protein Binding Rate
The protein binding rates of the compounds disclosed herein in plasma of human, CD-1 mice and SD rats were determined. 796 μL of blank plasma was taken from human, CD-1 mice and SD rats, and added with 4 μL of test compound working solution (400. μM) or warfarin working solution (400 μM) to achieve a final concentration of 2 μM of both the test compound and the warfarin in the plasma sample. The samples were mixed well. The final concentration of organic phase DMSO was 0.5%; 50 μL of test compound and warfarin plasma sample was pipetted into a sample receiving plate (three parallels), and a corresponding volume of blank plasma or buffer was immediately added such that the final volume of each sample well was 100 μL. The volume ratio of plasma to dialysis buffer was 1:1, and 400 μL of stop solution was added to these samples, which were used as TO samples for determination of recovery rate and stability. The TO samples were stored at 2-8° C. for subsequent treatment with other dialyzed samples; 150 μL of the test compound and warfarin plasma sample was added to a drug delivery end of each dialysis well, and 150 μL of blank dialysis buffer was added to a corresponding receiving end of the dialysis well. The dialysis plate was then sealed with a gas permeable membrane and placed in a humid, 5% CO2 incubator and incubated at 37° C. for 4 h while shaking at about 100 rpm. After the dialysis was completed, 50 μL of the dialyzed buffer sample and dialyzed plasma sample were pipetted to a new sample receiving plate. A corresponding volume of corresponding blank plasma or buffer was added to the samples such that the final volume of each sample well was 100 μL, and the volume ratio of plasma to dialysis buffer was 1:1. All samples were subjected to LC/MS analysis after protein precipitation, and the protein binding rates and the recovery rates were calculated by the following formulas: protein unbinding rate (%)=100×drug concentration passing through dialysis membrane/drug concentration not passing through dialysate; protein binding rate (%)=100−protein unbinding rate (%); recovery rate (%)=100×(drug concentration passing through dialysis membrane+drug concentration not passing through dialysate)/total drug concentration before dialysis.

PARylation = PARylation inhibition in Lovo cells (H2O2 stimulated, anti-PAR antibody); type: cell-based; settings: Homo sapiens, 25 mM H2O2
Procedure: Experimental Example 4: Anti-Proliferation Experiment on PARylation
Experimental materials: test compounds; F12K medium; Lovo cells; Anti-Poly (ADP-ribose) mouse monoclonal antibody; FITC-labeled goat anti-mouse IgG; hydrogen peroxide; DAPI; PBS; methanol; acetone; Tween-20; skimmed milk powder; Envision multi-marker analyzer.
Day one: Lovo cells were plated on a plate at 60,000 cells/well, and then incubated overnight at 37° C./5% CO2.
Day two: reagents were prepared: • 1. Washing solution: Tween-20 was added to 1-fold PBS, and the final concentration of Tween-20 was 0.05%. • 2. Blocking solution: skimmed milk powder was added to the washing solution, and the final concentration of skimmed milk powder was 5%. • 3. Cell stationary solution: methanol and acetone were mixed in a ratio of 7:3.
Preparation of test compounds: compound intermediate plate 1: compounds were diluted to final concentrations of 10 μM to 0.13 nM with DMSO and PBS, and the concentration of DMSO was 1%. Compound intermediate plate 2: compounds were diluted to final concentrations of 10 μM to 0.13 nM with DMSO and PBS containing 50 mM hydrogen peroxide, and the concentration of DMSO was 1%.
1. Cell supernatant was removed, and compound was transferred from the compound intermediate plate 1 to the cell plate at 40 μL per well, and the mixture was incubated at 37° C. for 30 min.
Compound wells: compound, DMSO 1%;
Negative and positive controls: 1% DMSO added;
Blank controls: cell-free wells, PBS added.
2. After the incubation was completed, compound was transferred from the compound intermediate plate 2 to the cell plate at 40 μL per well, and the final concentration of H2O2 was 25 mM.
Compound wells: compound+25 mM H2O2
Positive and negative controls: 1% DMSO+25 mM H2O2
Blank controls: cell-free wells, PBS added
4. After the incubation was completed, the cell plate was washed once with PBS pre-cooled on ice and added with 100 μL of pre-cooled cell stationary solution per well. After the cell plate was left to stand at −20° C. for 10 min, the cell stationary solution was shaken off. 5. After being air-dried, the cell plate was washed with PBS at 200 μL per well, and then the PBS was discarded. 6. The cell plate was added with blocking solution at 100 μL per well and incubated at 25° C. for 30 min, after which the blocking solution was shaken off. 7. Anti-PAR antibody which was diluted in blocking solution at a ratio of 1:50, was added to the cell plate at 25 μL per well, and then the mixture was incubated at 25° C. for 60 min.
Negative control wells: blocking solution added at 25 μL/well
Blank control wells: blocking solution added at 25 μL/well
8. […] After removal of the liquid, corresponding fluorescence values were read on Envision: FITC: 480 nm and 530 nm; DAPI: 360 nm and 460 nm. […]

| SMILES | fraction unbound at 4 h, 2 μM [1] | IC50 (PARylation) [nM] |
| --- | --- | --- |
| CC1(c2ccc(-c3[nH]c4cc(F)cc5c4c3CONC5=O)cc2F)CCCN1 (single isomer, unassigned) [Example 26_A] | 0.08 | 25 |
| CC1(c2ccc(-c3[nH]c4cc(F)cc5c4c3CONC5=O)cc2)CCCN1 (stereo not drawn) [Example 25_A] | 0.104 | – |

Next, values leading:

| fraction unbound at 4 h, 2 μM [1] | IC50 (PARylation) [nM] | SMILES |
| --- | --- | --- |
| 0.208 | 19 | CC1(c2ccc(-c3[nH]c4cccc5c4c3CONC5=O)cc2)CCCN1 (stereo not drawn) [Example 6_A] |
| 0.037 | 23 | O=C1NOCc2c(-c3ccc(C4CCCN4)cc3)[nH]c3cc(F)cc1c23 (single isomer, unassigned) [Example 24_A] |
| 0.101 | 27 | O=C1NOCc2c(-c3ccc(C4CCCN4)c(F)c3)[nH]c3cccc1c23 (stereo not drawn) [Example 11_A] |

— patent US20220144850A1, “INDOLO HEPTAMYL OXIME ANALOGUE AS PARP INHIBITOR” (Chia Tai Tianqing Pharmaceutical Group Co., Ltd., priority 2019, published 2022)
